According to patent US11485701B2, “Insect repellent compounds and compositions, and methods thereof” (Iowa State University Research Foundation, Inc., priority 2016, dated 2022):
Structures can show the parent of a compound that is named as a salt.

Columns and labels:
Type in all cases: in vivo
[1] = tested on: female Aedes aegypti (Orlando strain, 1952); assay: Minimum effective dosage testing, human skin (treated cloth patch); conditions: for Proportion to DEET: average MED relative to DEET; for Minimum Effective Dosage, Average: mean across subjects; for Minimum Effective Dosage, Subject 1 / Minimum Effective Dosage, Subject 2 / Minimum Effective Dosage, Subject 3: treated cloth patch, 1 min test, high dose 1.5 mg/cm^2
Experimental: The test mosquitoes were female Aedes aegypti (Orlando strain, 1952) from the colony maintained at United States Department of Agriculture-Agricultural Research Service-Center for Medical, Agricultural and Veterinary Entomology (USDA-ARS-CMAVE) in Gainesville, Fla. Pupae were obtained from the colony and newly emerged mosquitoes were maintained on 10% sugar water and kept in laboratory cages at an ambient temperature of 28±1° C. and RH of 35-60%. Host seeking behavior was pre-selected in nulliparous female mosquitoes aged 6-10 days, indicated by flight upwind towards a potential host, from stock cages using a hand-draw box and trapped in a collection trap.
After 500 (±10%) females were collected in the trap, they were transferred to a test cage (approximately 59,000 cm^3 with dimensions 45×37.5×35 cm) and allowed to acclimatize for 17.5 (±2.5) min before testing was initiated. Just prior to the experiment, the pieces of treated cloth are removed from the vials and stapled onto card stock tabs (5×3 cm). Each piece of the cards and the assembly were hung on a drying rack using masking tape for 3-5 min. Participants in the study used latex gloves to pull a nylon stocking over their arm. A Velcro™-sealed vinyl sleeve was then placed over the forearm. […] The purpose of the nylon stocking was to produce a barrier between the dried cloth and the skin, thereby avoiding direct contact of chemical to skin. The dried cloth assembly was affixed over the opening in the sleeve and held in place with masking tape. Participants then inserted their arm with the sleeve and patch into a screened cage that contained female Ae. Aegypti mosquitoes. Tests were conducted on each control or treated patch for 1 min. A control patch (acetone solvent only, then dried) was tested prior to the start of experiments and evaluation of the same untreated control patch after every 10 tests. If 5 landings were not received on the control patch in 30 s, then tests were discontinued for 60 min. At the conclusion of testing the control patch was tested again. If five landings were not received within 30 s, the data for the replicate was discarded. When testing a patch treated with a candidate repellent, if approximately 1% or 5 mosquito bites were received during this one minute test, this compound was considered to have failed, i.e., was not repellent at that concentration. If a treated cloth patch received 0-4 bites within a minute, then it was considered as passed, i.e., repellent at that concentration of the test compound. The median concentration patch was tested in the first round and treated patches were then tested successively at higher or lower concentrations depending upon whether the previous patch failed or passed, respectively.
The time interval between each tested patch was <90 seconds until 10 successive tests had been conducted. If appreciable, mortality had occurred during testing, the number of knocked down mosquitoes are estimated and additional female mosquitoes are added to the cage to keep the available mosquitoes at approximately 500. The estimate of the MED was the lowest concentration that passed for each candidate. Observed MED values for each candidate compound were averaged across participants and reported as a mean MED±standard error.

[2] = tested on: Northern house mosquitoes (Culex pipiens); assay: Short-term spatial repellency, static air repellency chamber; conditions: Culex pipiens, filter paper, 1 mL of 0.5% solution in acetone, air-dried 15 min
Experimental: (§1) Northern house mosquitoes (Culex pipiens), a primary carrier of West Nile virus in eastern North America, were obtained from an established colony in the Medical Entomology Laboratory in the Department of Entomology at Iowa State University of Science and Technology, Ames Iowa. Mosquito rearing was performed by established protocols that are maintained by the Medical Entomology Laboratory. Repellency bioassays were performed with adult female mosquitoes that emerged 5-7 days previously. […] Mosquitoes, prior to testing, were held at 27° C., 80% relative humidity, and on a 16:8 hr light:dark photoperiod.
Repellency bioassays were performed using a static air repellency chamber, which has been described in various publications by the Pesticide Toxicology Laboratory at Iowa State University of Science and Technology, Ames, Iowa Briefly, a 9-cm×60-cm glass tube was used to monitor the distribution of mosquitoes at 15 min, 30 min, 60 min, 90 min, 120 min, and 150 min after introducing mosquitoes into the static air repellency chamber. […] One end of the spatial chamber contained a treated filter paper, whereas the other (untreated) end of the spatial chamber was not treated with compound. Controls contained filter papers treated with acetone, the solvent used to make the 0.5% solutions. Each end of the repellency chamber was secured with a 100-mm Petri dish using celluloid tape. After securing the petri dishes with corresponding treated or untreated filter papers to the spatial chamber, mosquitoes were anesthetized with carbon dioxide, and approximately 20 female mosquitoes were placed into each repellency chamber for one replicate. The opening of the spatial repellency chamber was secured with celluloid tape to prevent their escape. Chambers were oriented in opposite directions from the previous replicate to account for any directional effect. Four replicates were performed for data analysis for both the control and treatment groups.
(§2) Data for spatial repellency, the percentage repellency, is reported at each of the respective time points in the figures and tables mentioned below. The percentage spatial repellency is the examination of the distribution of mosquitoes and is calculated using the following equation: […]

[3] = tested on: Northern house mosquitoes (Culex pipiens); assay: Long-term spatial repellency, static air repellency chamber, filter papers air-dried 5 hours; conditions: Culex pipiens, 1 mL of 0.5% solution in acetone, air-dried 5 hours
Experimental: as §1, with “were” for “emerged”, “post-emergent.” for “previously.”
Repellency bioassays were performed using a static air repellency chamber, which has been described in various publications by the Pesticide Toxicology Laboratory at Iowa State University of Science and Technology, Ames, Iowa Briefly, a 9-cm×60-cm glass tube was used to monitor the distribution of mosquitoes at 15 min, 30 min, 60 min, 90 min, 120 min, and 150 min after introducing mosquitoes into the static air repellency chamber. Treated filter papers were treated with 1 mL of 0.5% solution in acetone of the terpenoid analogs created in the lab and were exposed to ambient air for 5 hours before they were introduced into the spatial chamber for testing. This is a slight modification of the method described in Example 2, so as to evaluate the residual repellent character of these compounds on a treated surface after 5 hours. One end of the spatial chamber contained a treated filter paper, whereas the other (untreated) end of the spatial chamber was not treated with compound. Controls contained filter papers treated with acetone, the solvent used to make the 0.5% solutions. Each end of the repellency chamber was secured with a 100-mm Petri dish using celluloid tape. After securing the petri dishes with corresponding treated or untreated filter papers to the spatial chamber, mosquitoes were anesthetized with carbon dioxide, and approximately 20 female mosquitoes were placed into each repellency chamber for one replicate. The opening of the spatial repellency chamber was secured with celluloid tape to prevent their escape. Chambers were oriented in opposite directions from the previous replicate to account for any directional effect. Four replicates were performed for data analysis for both the control and treatment groups.
as §2, with “below in this disclosure.” for “below.”

[4] = 0.25 h, 15 min after introduction, read-out: Short-term Percentage repellency 15 min
[5] = 1.5 h, 90 min, read-out: Short-term Percentage repellency 90 min
[6] = 2.5 h, 150 min, read-out: Short-term Percentage repellency 150 min
[7] = 0.25 h, 15 min, read-out: Long-term Percentage repellency 15 min
[8] = 1.5 h, 90 min, read-out: Long-term Percentage repellency 90 min
[9] = 2.5 h, 150 min, read-out: Long-term Percentage repellency 150 min

Structure (SMILES)	Proportion to DEET [1]	Minimum Effective Dosage, Average [1] [mg/cm^2]	Minimum Effective Dosage, Subject 1 [1] [mg/cm^2]	Minimum Effective Dosage, Subject 2 [1] [mg/cm^2]	Minimum Effective Dosage, Subject 3 [1] [mg/cm^2]	pest or weed control at 0.5 % [2, 4] [%]	pest or weed control at 0.5 % [2, 5] [%]	pest or weed control at 0.5 % [2, 6] [%]	pest or weed control at 0.5 % [3, 7] [%]	pest or weed control at 0.5 % [3, 8] [%]	pest or weed control at 0.5 % [3, 9] [%]
O=C(C=Cc1ccccc1)OCCCO [3-hydroxypropyl cinnamate]	52.632	1.000	0.750	1.500	0.750						
O=C(C=Cc1ccccc1)OCCO [2-hydroxyethyl cinnamate]					0.094						
CC(C)=CCC/C(C)=C/C(=O)OCC(C)O (stereo not drawn) [2-hydroxypropyl geranate]	2.474	0.047	0.047	0.047	0.047						
CC(O)COC(=O)C=Cc1ccccc1 (stereo not drawn) [2-hydroxypropyl cinnamate]	19.737	0.375		0.375	0.375						
CC(C)=CCC/C(C)=C/C(=O)OCCO [2-hydroxyethyl geranate]	13.140	0.250	0.187	0.375	0.187						
C=CC(C)(C)OC(=O)CC(C)CCC=C(C)C (stereo not drawn) [Compound 2170, tert-prenyl citronellate]						80	92.5	82.5	2.5	7.5	-2.5
CCN(CC)C(=O)c1cccc(C)c1 [N,N-diethyl-meta-toluamide (DEET), N,N-diethyl-meta-toluamide, reference compound]						20	50	56.7	32.5	32.5	45
CC(C)=CCCC(C)CCOC(=O)C1CCCC1 (stereo not drawn) [Compound 2119, citronellyl cyclopentanecarboxylate]						-1.25	33.8	52.5	20	55	45
CC(C)=CCCC(C)CC(=O)OCCCO (stereo not drawn) [3-hydroxypropyl citronellate]	3.702	0.070	0.094	0.094	0.023						
CC(C)=CCCC(C)CCOC(=O)C1CC(C)C1 (stereo not drawn) [Compound 3068, citronellyl 3-methylcyclobutanecarboxylate]						22.5	32.5	42.5	22.5	32.5	42.5
Cc1ccc(C(C)C)c(OC(=O)C(C)(C)F)c1 [Compound 1121A, thymyl 2-fluoroisobutyrate]						77.5	97.5	97.5	22.5	50	65
CC(C)=CCC/C(C)=C/C(=O)OCCCO [3-hydroxypropyl geranate]	6.579	0.125	0.187	0.094	0.094						
Cc1ccc(C(C)C)c(OC=O)c1 [Compound 1107A, thymyl formate]						35	80	75	25	17.5	22.5
CC(C)=CCCC(C)CCOC(=O)C1(C)CCC1 (stereo not drawn) [Compound 2106, citronellyl 1-methylcyclobutanecarboxylate]						30	60	67.5	15	10	15
CC(C)=CCC/C(C)=C\COC(=O)C1CC1 [Compound 2023B, neryl cyclopropanecarboxylate]						10	52.5	60	10	52.5	60
